Test results: US20200270225A1, “Chiral Diacylhydrazine Ligands for Modulating the Expression of Exogenous Genes via an Ecdysone Receptor Complex” (Intrexon Corporation, priority 2007, published 2020)
pEC50: −log10 of the molar value. Read-outs that look alike come from different tables or passages of the source.

Key:
[1] = target: wild-type Choristoneura fumiferana EcR (D, E and F domains) (Choristoneura fumiferana, UniProt O77240); type: cell-based; settings: WT-CtEcR, 3T3 Cells; for RMFI (relative maximum fold induction): relative to GS-E ligand
How it was run: (§1)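 NIH3T3 cells were transiently co-transfected with GAL4-DBD fused to CfEcR DEF domains (wild-type or V390I/Y410E/E274V), VP16-AD fused to chimeric human/Locusta RXR, and a GAL4-response luciferase reporter. Ligand was given at 8 doses, 0.01–33 µM, 0.33% DMSO, luciferase read at 48 h. EC50 came from fold induction over DMSO via three-parameter logistic fit; Relative Max FI was taken versus GS™-E ligand.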

[2] = target: T1, [V390I/Y410E/E274V]-CfEcR (Choristoneura fumiferana, UniProt O77240); type: cell-based; settings: 3T3 Cells; for RMFI (relative maximum fold induction): relative to GS-E ligand
T1 construct: assay construct b835
How it was run: as §1

Row | SMILES | melting point | pEC50 ([1]; R) | RMFI (relative maximum fold induction) ([1]; R) | pEC50 ([2]; R) | RMFI (relative maximum fold induction) ([2]; R) | pEC50 ([1]; S) | pEC50 ([2]; S)
1 | CCC[C@@H](N(NC(=O)c1ccccc1)C(=O)c1cc(C)cc(C)c1)C(C)(C)C [Example 2, (R)-3,5-Dimethyl-benzoic acid N′-benzoyl-N-(1-tert-butyl-butyl)-hydrazide] | 66 to 68 °C | ~7.52 | 0.74 | 8.66 | 0.91 | – | –
2 | CCC[C@@H](N(NC(=O)c1ccccc1C)C(=O)c1cc(C)cc(C)c1)C(C)(C)C [Example 3, (R)-3,5-Dimethyl-benzoic acid N-(1-tert-butyl-butyl)-N′-(2-methyl-benzoyl)-hydrazide] | 137 to 138 °C | 7.05 | 0.75 | 8.96 | 0.69 | – | –
3 | CCC[C@@H](N(NC(=O)c1ccccc1F)C(=O)c1cc(C)cc(C)c1)C(C)(C)C [Example 5, (R)-3,5-Dimethyl-bcnzoic acid N-(1-tert-butyl-butyl)-N′-(2-fluoro-benzoyl)-hydrazide] | 114 to 116 °C | ~7.40 | 0.68 | ~9.10 | 1.16 | – | –
4 | CCC[C@@H](N(NC(=O)c1ccccc1Cl)C(=O)c1cc(C)cc(C)c1)C(C)(C)C [Example 6, (R)-3,5-Dimethyl-benzoic acid N-(1-tert-butyl-butyl)-N′-(2-chloro-benzoyl)-hydrazide] | 138 to 140 °C | ~7.70 | 0.88 | 9.20 | 1.01 | – | –
5 | CCC[C@@H](N(NC(=O)c1ccccc1Br)C(=O)c1cc(C)cc(C)c1)C(C)(C)C [Example 7, (R)-3,5-Dimethyl-benzoic acid N′-(2-bromo-benzoyl)-N-(1-tert-butyl-butyl)-hydrazide] | 145 to 147 °C | 7.10 | 0.58 | 8.85 | 0.90 | – | –
6 | CCC[C@@H](N(NC(=O)c1cccc(C)c1)C(=O)c1cc(C)cc(C)c1)C(C)(C)C [Example 8, (R)-3,5-Dimethyl-benzoic acid N-(1-tert-butyl-butyl)-N′-(3-methyl-benzoyl)-hydrazide] | 158 to 159 °C | ~7.52 | 0.86 | 8.92 | 0.92 | – | –
7 | CCC[C@@H](N(NC(=O)c1cccc(OC)c1)C(=O)c1cc(C)cc(C)c1)C(C)(C)C [Example 9, (R)-3,5-Dimethyl-benzoic acid N-(1-tert-butyl-butyl)-N′-(3-methoxy-benzoyl)-hydrazide] | 110 to 111 °C | 7.00 | 0.81 | 8.85 | 0.70 | – | –
8 | CCC[C@@H](N(NC(=O)c1cccc(Cl)c1)C(=O)c1cc(C)cc(C)c1)C(C)(C)C [Example 10, (R)-3,5-Dimethyl-benzoic acid N-(1-tert-butyl-butyl)-N′-(3-chloro-benzoyl)-hydrazide] | 163 to 164 °C | 7.02 | 0.87 | ~8.52 | 0.76 | – | –
9 | CCC[C@@H](N(NC(=O)c1ccc(C)cc1)C(=O)c1cc(C)cc(C)c1)C(C)(C)C [Example 11, (R)-3,5-Dimethyl-benzoic acid N-(1-tert-butyl-butyl)-N′-(4-methyl-benzoyl)-hydrazide] | 60 to 62 °C | ~7.70 | 0.74 | ~9.00 | 0.90 | – | –
10 | CCC[C@@H](N(NC(=O)c1ccc(CC)cc1)C(=O)c1cc(C)cc(C)c1)C(C)(C)C [Example 12, (R)-3,5-Dimethyl-benzoic acid N-(1-tert-butyl-butyl)-N′-(4-ethyl-benzoyl)-hydrazide] | 111 to 112 °C | 7.63 | 0.78 | 9.25 | 0.82 | – | –
11 | CCC[C@@H](N(NC(=O)c1ccc(OC)cc1)C(=O)c1cc(C)cc(C)c1)C(C)(C)C [Example 13, (R)-3,5-Dimethyl-benzoic acid N-(1-tert-butyl-butyl)-N′-(4-methoxy-benzoyl)-hydrazide] | 65 to 67 °C | 7.37 | 0.73 | 8.85 | 0.68 | – | –
12 | CCC[C@@H](N(NC(=O)c1ccc(Cl)cc1)C(=O)c1cc(C)cc(C)c1)C(C)(C)C [Example 14, (R)-3,5-Dimethyl-benzoic acid N-(1-tert-butyl-butyl)-N′-(4-chloro-benzoyl)-hydrazide] | 87 to 89 °C | 6.85 | 0.74 | 7.29 | 0.74 | – | –
13 | CCC[C@@H](N(NC(=O)c1c(F)cccc1F)C(=O)c1cc(C)cc(C)c1)C(C)(C)C [Example 15, (R)-3,5-Dimethyl-benzoic acid N-(1-tert-butyl-butyl)-N′-(2,6-difluoro-benzoyl)-hydrazide] | 180 to 182 °C | 7.18 | 0.82 | 9.27 | 0.79 | – | –
14 | CCC[C@@H](N(NC(=O)c1c(Cl)cccc1Cl)C(=O)c1cc(C)cc(C)c1)C(C)(C)C [Example 16] | 185 to 187 °C | ~6.52 | 0.53 | 7.29 | 0.83 | – | –
15 | CCC[C@@H](N(NC(=O)c1ccc(OC)c(OC)c1)C(=O)c1cc(C)cc(C)c1)C(C)(C)C [Example 17, (R)-3,5-Dimethyl-benzoic acid N-(1-tert-butyl-butyl)-N′-(3,4-dimethoxy-benzoyl)-hydrazide] | 121 to 123 °C | ~5.40 | 0.27 | ~6.52 | 0.53 | – | –
16 | CCC[C@@H](N(NC(=O)c1cc(F)cc(F)c1)C(=O)c1cc(C)cc(C)c1)C(C)(C)C [Example 18, (R)-3,5-Dimethyl-benzoic acid N-(1-tert-butyl-butyl)-N′-(3,5-difluoro-benzoyl)-hydrazide] | 192 to 194 °C | 6.85 | 0.52 | ~8.00 | 0.79 | – | –
17 | CCC[C@@H](N(NC(=O)c1ccc2c(c1C)OCCO2)C(=O)c1cc(C)cc(C)c1)C(C)(C)C [Example 21, (R)-3,5-Dimethyl-benzoic acid N-(1-tert-butyl-butyl)-N′-(5-methyl-2,3-dihydro-benzo[1,4]dioxine-6-carbonyl)-hydrazide] | 70 °C | 9.52 | 0.87 | ~10.40 | 1.14 | – | –
18 | CCC[C@@H](N(NC(=O)c1ccc2c(c1CC)OCCO2)C(=O)c1cc(C)cc(C)c1)C(C)(C)C [Example 22, (R)-3,5-Dimethyl-benzoic acid N-(1-tert-butyl-butyl)-N′-(5-ethyl 2,3-dihydro-benzo[1,4]dioxine-6-carbonyl)-hydrazide] | 128 to 129 °C | 9.58 | 0.78 | 10.19 | 0.77 | – | –
19 | CCC[C@@H](N(NC(=O)c1cccc2ccccc12)C(=O)c1cc(C)cc(C)c1)C(C)(C)C [Example 23, (R)-3,5-Dimethyl-benzoic acid N-(1-tert-butyl-butyl)-N′-(naphthalene-1-carbonyl)-hydrazide] | 173 to 174 °C | 6.95 | 0.69 | ~8.00 | 0.73 | – | –
20 | CCC[C@@H](N(NC(=O)[C@@H](C)c1ccc2cc(OC)ccc2c1)C(=O)c1cc(C)cc(C)c1)C(C)(C)C [Example 30, (R)-3,5-Dimethyl-benzoic Acid N-(1-tert-butyl-butyl)-N′—(S)-[2-(6-methoxy-naphthalen-2-yl)-propionyl]-hydrazide] | 98 °C | – | – | – | – | – | –
21 | C=CC[C@@H](CCc1ccccc1)N(NC(=O)c1ccc(CC)cc1)C(=O)c1cc(C)cc(C)c1 [Example 62, (R)-3,5-Dimethyl-benzoic Acid N′-(4-ethyl-benzoyl)-N-(1-phenethyl-but-3-enyl)-hydrazide] | – | 5.51 | 0.14 | 5.70 | 0.54 | – | –
22 | Cc1cc(C)cc(C(=O)N(NC(=O)OCc2ccccc2)[C@@H](CCCO)C(C)(C)C)c1 [Example 63, (S)—N′-(1-tert-Butyl-4-hydroxy-butyl)-N′-(3,5-dimethyl-benzoyl)-hydrazine Carboxylic Acid Benzyl Ester] | – | – | – | – | – | < 5.00 | < 5.00
23 | Cc1cc(C)cc(C(=O)N(NC(=O)OCc2ccccc2)[C@H](CCCO)C(C)(C)C)c1 [Example 64, (R)—N′-(1-tert-Butyl-4-hydroxy-butyl)-N′-(3,5-dimethyl-benzoyl)-hydrazine carboxylic Acid benzyl ester] | – | < 4.48 | 0.02 | ~5.10 | 0.33 | – | –
